Columns and labels:
GLP1R [1] = biological target: T1, GLP1R (Homo sapiens, UniProt P43220); experiment: GLP1R cAMP assay (HTRF cAMP detection, agonist activity); type: cell-based; set-up: host or cells: Flp-In-293; settings: Flp-In-293-GLP1R cells, 30 min at 37° C., read-out: EC50 (nM) Assay 1
Description: GLP1R-mediated agonist activity was determined with a cell-based functional assay utilizing an HTRF (Homogeneous Time-Resolved Fluorescene) cAMP detection kit that measures CAMP levels in the cell. Reagents and equipment used in the assay are listed below, followed by the protocol.
• 1) Cell Line: Flp-In-293-GLP1R (constructed by Pharmaron Beijing Co., Ltd) • 2) Complete Medium: DMEM+10% FBS+1×Penicillin-Streptomycin+200 μg/mL HB • 3) Assay Buffer: 1×HBSS+20 mM HEPES+0.1% BSA+500 μM IBMX
• a) Seed Flpin-293-GLP1R cells at 20,000 cells/well into 384 well assay plate (6007680-50, PE) using complete medium. • b) Prepare 4×compound working solution with assay buffer. • c) Add 5 μL 4×compound working solution into cell plate, incubate 30 min at 37° C. • d) Dilute Eu-cAMP tracer (1/50) with lysis buffer and add 10 μl/well to assay plate. • e) Dilute Ulight-anti-cAMP (1/150) with lysis buffer and add 10 μl/well to assay plate. • f) Incubate 1 h at RT. • g) Read the plate at wavelengths of 665 nm and 615 nm on Envision 2105 plate reader.
(§1) • 3.1% Activity is calculated as follow:
% Activity=100−(Signalcmpd−SignalAve_PC)/(SignalAve_VC−SignalAve_PC)×100. • 3.2 Calculate EC50 and Plot effect-dose curve of cmpds:
Y=Bottom+(Top−Bottom)/(1+10^((Log EC50−X)*Hill Slope)) • X: log of agonist concentration; Y: % Activity.
Target sequence in this assay (P43220 24-463, species assumed): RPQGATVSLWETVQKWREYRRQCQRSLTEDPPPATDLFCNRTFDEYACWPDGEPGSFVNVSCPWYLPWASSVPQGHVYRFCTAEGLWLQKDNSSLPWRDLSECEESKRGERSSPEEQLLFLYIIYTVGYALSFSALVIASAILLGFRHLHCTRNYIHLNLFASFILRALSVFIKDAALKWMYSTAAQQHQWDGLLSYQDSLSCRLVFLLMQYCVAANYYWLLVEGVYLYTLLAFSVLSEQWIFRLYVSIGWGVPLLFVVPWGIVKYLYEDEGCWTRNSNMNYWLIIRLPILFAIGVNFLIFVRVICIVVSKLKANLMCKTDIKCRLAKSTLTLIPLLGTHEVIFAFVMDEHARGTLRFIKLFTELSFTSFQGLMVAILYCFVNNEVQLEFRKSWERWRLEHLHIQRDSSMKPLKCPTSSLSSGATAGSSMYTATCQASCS

GLP1R [2] = biological target: T1, GLP1R; experiment: GLP1R/CRE-Luc luciferase reporter gene assay (agonist activity); type: cell-based; set-up: host or cells: HKE293 (so in the source); settings: HKE293-Human GLP1R/CRE-luc cells, 5 h at 37° C., read-out: EC50 (nM) Assay 2
Description: GLP1R-mediated agonist activity was determined with a cell-based functional assay utilizing a britelite plus luciferase reporter gene assay system. The stable cell line overexpress GLP1R and target response element. The stimulation with GLP1R agonist results in the upregulation of intracellular cAMP, which regulate the activities of cAMP-response element binding protein (CREB) and CREB-Luc. Reagents and equipment used in the assay are listed below, followed by the protocol.
• 1) Cell Line: HKE293-Human GLP1R/CRE-luc • 2) Complete Medium: DMEM+10% FBS+1×Penicillin-Streptomycin+400 μg/mL G418
• a) Seed HKE293-Human GLP1R/CRE-luc cells at 20,000 cells/well into 384 well assay plate (6007680-50, PE) using complete medium and incubate overnight. • b) Prepare 6×compound working solution with Medium. • c) Add 5 μL 6×compound working solution into cell plate, incubate 5 h at 37° C. • d) Add 20 μl britelite plus Luciferase Assay Reagent into each well of 384-well assay plate. • e) Record the luminescence value on Envision plate reader.
as §1
Target sequence in this assay (P43220 24-463): as the sequence (P43220 24-463, species assumed) above
% Activity=(Signalcmpd−SignalAve_VC)/(SignalAve_PC−SignalAve_VC)×100. • 3.2 Calculate EC50 and Plot effect-dose curve of cmpds:
Y=Bottom+(Top−Bottom)/(1+10^((Log EC50−X)*HillSlope)) • X: log of agonist concentration; Y: % Activity.

Compound	EC50 (GLP1R [1]) [nM]	EC50 (GLP1R [2]) [nM]
N#Cc1ccc(COc2cccc(C34CCN(Cc5nc6ccc(C(=O)O)cc6n5C[C@@H]5CCO5)CC3C4)n2)c(F)c1 (single isomer, unassigned) [Compound 1-1-A]	0.028	48.7
N#Cc1ccc(COc2cccc(C34CCN(Cc5nc6ccc(C(=O)O)cc6n5C[C@@H]5CCO5)CC3C4)n2)c(F)c1 (single isomer, unassigned) [Compound 1-1-B]	0.035	84.9
N#Cc1ccc(COc2cccc(C34CCN(Cc5nc6c(F)cc(C(=O)O)cc6n5C[C@@H]5CCO5)CC3C4)n2)c(F)c1 (single isomer, unassigned) [Compound 1-10-A]	0.009	19.3
N#Cc1ccc(COc2cccc(C34CCN(Cc5nc6c(F)cc(C(=O)O)cc6n5C[C@@H]5CCO5)CC3C4)n2)c(F)c1 (single isomer, unassigned) [Compound 1-10-B]	0.021	47.6
N#Cc1ccc(COc2cccc(C34CCN(Cc5nc6ccc(C(=O)O)cc6n5C[C@@H]5CCO5)CC3C4)n2)c(F)c1 (stereo partly drawn) [Compound 1-1, 2-[(6-{6-[(4-cyano-2-fluorophenyl)methoxy]pyridin-2-yl}-3-azabicyclo[4.1.0]heptan-3-yl)methyl]-3-[(2S)-oxetan-2-ylmethyl]-1,3-benzodiazole-5-carboxylic acid]	0.029	80.8
O=C(O)c1ccc2nc(CN3CCC4(c5cccc(OCc6ccc(Cl)cc6F)n5)CC4C3)n(C[C@@H]3CCO3)c2c1 (stereo partly drawn) [Compound 1-5, 2-((6-(6-((4-chloro-2-fluorobenzyl)oxy)pyridin-2-yl)-3-azabicyclo[4.1.0]heptan-3-yl)methyl)-1-(((S)-oxetan-2-yl)methyl)-1H-benzo[d]imidazole-6-carboxylic acid]	0.03	100
O=C(O)c1ccc2nc(CN3CCC4(c5cccc(OCc6ccc(C(F)(F)F)cc6F)n5)CC4C3)n(C[C@@H]3CCO3)c2c1 (stereo partly drawn) [Compound 1-8, 2-{[6-(6-{[2-fluoro-4-(trifluoromethyl)phenyl]methoxy}pyridin-2-yl)-3-azabicyclo[4.1.0]heptan-3-yl]methyl}-3-[(2S)-oxetan-2-ylmethyl]-1,3-benzodiazole-5-carboxylic acid]	0.035	108
N#Cc1ccc(COc2cccc(C34CCN(Cc5nc6c(F)cc(C(=O)O)cc6n5C[C@@H]5CCO5)CC3C4)n2)c(F)c1 (stereo partly drawn) [Compound 1-10, 2-((6-(6-((4-cyano-2-fluorobenzyl)oxy)pyridin-2-yl)-3-azabicyclo[4.1.0]heptan-3-yl)methyl)-4-fluoro-1-(((S)-oxetan-2-yl)methyl)-1H-benzo[d]imidazole-6-carboxylic acid]	0.047	31.2
N#Cc1ccc(COc2cccc(N3C4CCC3CN(Cc3nc5ccc(C(=O)O)cc5n3C[C@@H]3CCO3)C4)n2)c(F)c1 [Compound 2-29, 2-((−8-(6-((4-cyano-2-fluorobenzyl)oxy)pyridin-2-yl)-3,8-diazabicyclo[3.2.1]octan-3-yl)methyl)-1-(((S)-oxetan-2-yl)methyl)-1H-benzo[d]imidazole-6-carboxylic acid]	0.287	> 1000
N#Cc1ccc(COc2ccnc(N3C4CCC3CN(Cc3nc5ccc(C(=O)O)cc5n3C[C@@H]3CCO3)C4)c2)c(F)c1 [Compound 2-34, 2-((−8-(4-((4-cyano-2-fluorobenzyl)oxy)pyridin-2-yl)-3,8-diazabicyclo[3.2.1]octan-3-yl)methyl)-1-(((S)-oxetan-2-yl)methyl)-1H-benzo[d]imidazole-6-carboxylic acid]	> 4	> 1000
N#Cc1ccc(COc2cccc(N3C4CCC3CN(Cc3nc5ccc(C(=O)O)cc5n3C[C@@H]3CCO3)C4)c2)c(F)c1 [Compound 2-35, 2-((−8-(3-((4-cyano-2-fluorobenzyl)oxy)phenyl)-3,8-diazabicyclo[3.2.1]octan-3-yl)methyl)-1-(((S)-oxetan-2-yl)methyl)-1H-benzo[d]imidazole-6-carboxylic acid]	2.79	> 1000

Source: patent US20240382471A1, “GLUCAGON-LIKE PEPTIDE-1 RECEPTOR MODULATORS AND USES THEREOF” (HEPAGENE THERAPEUTICS (HK) LIMITED, priority 2021, published 2024)
